The results in this text go back to US9988371B2, “Benzimidazole analogues and related methods” (The Arizona Board of Regents, on Behalf of the University …, priority 2014, dated 2018).

In series [1] the target is T1, hERG (Homo sapiens, UniProt Q12809).
T1 construct: purchased GenScript
The series can be described thus: patch clamp hERG assay. Format: cell-based. The conditions noted are these: patch clamp (GenScript). Here is the method: (§1) Pz-1 was minimally active in the patch clamp hERG assay, with an IC50 for the hERG assay of 10 μM (GenScript).
(In general: In patch-clamp work, channel activity is measured electrically.)

The target of series [2] is T2, hERG (relative to RET) (Homo sapiens, UniProt Q12809).
T2 construct: purchased GenScript
The series can be described thus: patch clamp hERG assay. Conditions: human; read-out: selectivity for RET over hERG. The class given is cell-based. Here is the method:
as §1

Series [3] relates to HRAS(G12V) transformed NIH3T3 fibroblasts. The series is described as follows: NIH3T3 HRAS(G12V) tumors in nude mice. Format: in vivo, BALB/c nu/nu mice. Conditions: 1.0, 3.0 or 10 mg/kg daily, oral gavage. An excerpt: FIG. 8: Anti-tumorigenic activity of Pz-1 in nude mice implanted with RET/C634Y or HRAS(G12V) transformed NIH3T3 fibroblasts. […] Average tumor volume (±SD: standard deviations) is reported. NIH3T3 RET/C634Y (200,000 cells) or NIH3T3 HRAS/G12V (50,000 cells) were inoculated subcutaneously into dorsal portion (both sides) of 6-week-old female BALB/c nu/nu mice (n. 31 mice/cell line) (Jackson Laboratories, Bar Harbor, Me.). After 4 days, before tumors had appeared, animals were randomly assigned to receive Pz-1 (1.0, 3.0 or 10 mg/kg daily) (23 mice/cell line: 8 mice/group for 1.0 and 3.0 mg/kg daily doses and 7 mice for 10 dose mg/kg daily) or vehicle control (8 mice) by oral gavage. Tumor diameters were measured with calipers every 1-2 days. Tumor volumes (V) were calculated by the rotational ellipsoid formula and reported as average volumes±standard deviations. […]
TT cells (7.5×10^6/mouse) were inoculated subcutaneously into dorsal portions (both sides) of 39 SCID mice (Jackson Laboratories, Bar Harbor, Me.). […] Tumor diameters were measured with callipers every week. Tumor volumes (V) were calculated by the rotational ellipsoid formula: V=A×B^2/2 (A=axial diameter; B=rotational diameter) and reported as average volumes±standard deviations. […] Anti-tumorigenic activity of Pz-1 was also assessed in nude mice implanted with RET/C634Y or HRAS(G12V) transformed NIH3T3 fibroblasts. […]

T2 sequence (Q12809 whole entry): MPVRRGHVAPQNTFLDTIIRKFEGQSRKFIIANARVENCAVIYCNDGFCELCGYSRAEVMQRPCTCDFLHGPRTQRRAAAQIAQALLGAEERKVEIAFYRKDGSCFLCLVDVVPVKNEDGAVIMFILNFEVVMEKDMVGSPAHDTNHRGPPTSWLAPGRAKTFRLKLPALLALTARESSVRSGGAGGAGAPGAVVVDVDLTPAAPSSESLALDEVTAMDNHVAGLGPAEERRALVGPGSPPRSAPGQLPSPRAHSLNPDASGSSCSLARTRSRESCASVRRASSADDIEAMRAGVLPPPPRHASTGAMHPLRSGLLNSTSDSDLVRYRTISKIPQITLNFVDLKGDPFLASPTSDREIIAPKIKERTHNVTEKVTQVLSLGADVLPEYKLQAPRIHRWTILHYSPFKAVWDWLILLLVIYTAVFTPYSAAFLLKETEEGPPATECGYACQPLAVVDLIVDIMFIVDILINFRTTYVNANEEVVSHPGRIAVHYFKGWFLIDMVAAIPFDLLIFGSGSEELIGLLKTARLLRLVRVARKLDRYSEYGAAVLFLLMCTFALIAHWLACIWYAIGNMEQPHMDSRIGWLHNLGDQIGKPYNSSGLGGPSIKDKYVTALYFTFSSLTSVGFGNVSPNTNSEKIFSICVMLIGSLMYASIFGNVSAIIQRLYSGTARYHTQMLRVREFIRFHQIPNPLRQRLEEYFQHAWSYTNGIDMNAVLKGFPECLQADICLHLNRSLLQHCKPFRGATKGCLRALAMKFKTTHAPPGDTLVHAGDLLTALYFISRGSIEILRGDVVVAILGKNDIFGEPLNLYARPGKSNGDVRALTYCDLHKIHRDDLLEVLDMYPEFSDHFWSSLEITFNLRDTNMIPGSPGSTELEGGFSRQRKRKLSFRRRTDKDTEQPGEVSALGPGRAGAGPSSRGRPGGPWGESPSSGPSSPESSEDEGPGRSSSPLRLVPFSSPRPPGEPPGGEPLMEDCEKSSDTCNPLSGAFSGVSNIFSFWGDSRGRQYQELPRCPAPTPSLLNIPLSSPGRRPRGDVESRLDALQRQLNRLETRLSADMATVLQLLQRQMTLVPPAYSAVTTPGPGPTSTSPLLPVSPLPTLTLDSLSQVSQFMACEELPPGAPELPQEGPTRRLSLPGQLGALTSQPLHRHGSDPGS
T1 sequence (Q12809 whole entry): as above

For orientation: IC50 means the point on the concentration scale where inhibition reaches its midpoint. The low end stands for greater potency in that assay, the high end for weaker potency in that assay. Turning to `Cn1cc(-c2ccc3c(c2)ncn3-c2ccc(CC(=O)Nc3cc(C(C)(C)C)on3)cc2)cn1` [Pz-1, N-(5-(tert-butyl)isoxazol-3-yl)-2-(4-(5-(1-methyl-1H-pyrazol-4-yl)-1H-benzo[d]imidazol-1-yl)phenyl)acetamide], half-maximal inhibition in series [1] (IC50) required 10 µM. Moreover, in series [2], the selectivity ratio came out at 10000. Also, the “formation of tumors driven by the HRAS oncogene” value in series [3] is “only reduced, but did not abrogate”.
